# Patent US20230021562A1, “[…] D[…]-1 INHIBITORS” (priority 2019, published 2023)
# Several values for one entry are separate records, joined by “and”; a condition that tells them apart may be missing. Identical values can stand only once. Like-named read-outs stand apart in the source and are kept apart here.
# Assays:
# [1] = molecular target: Myeloid Cell Leukemia 1 (Mcl-1) (Homo sapiens, UniProt Q07820); experiment: biochemical; type: binding; settings: HTRF Ki (nM)
# [2] = test system: MOLP8 cell line; experiment: MOLP8 CellEvent Caspase-3/7 Green live-cell IncuCyte apoptosis assay; type: cell-based, human; settings: averaged values
# Protocol: (§1) MCL-1 is a regulator of apoptosis and is highly over-expressed in tumor cells that escape cell death. The assay evaluates the cellular potency of small-molecule compounds targeting regulators of the apoptosis pathway, primarily MCL-1, Bfl-1, Bcl-2, and other proteins of the Bcl-2 family. Protein-protein inhibitors disrupting the interaction of anti-apoptotic regulators with BH3-domain proteins initiate apoptosis.
# Activation of the apoptotic pathway was measured using the CellEvent™ Caspase-3/7 Green ReadyProbes™ Reagent (Thermo Fisher C10423, C10723). This assay produces a green fluorescent stain in cells that enter the apoptosis pathway. CellEvent® Caspase-3/7 Green reagent is a four amino acid peptide (DEVD) conjugated to a nucleic acid-binding dye that is non-fluorescent when not bound to DNA. The CellEvent® Caspase-3/7 Green reagent is intrinsically non-fluorescent, as the DEVD peptide inhibits binding of the dye to DNA. Upon activation of caspase-3/7 in apoptotic cells, the DEVD peptide is cleaved and the free dye can bind DNA, generating a bright green fluorescence. The activation of Caspase-3 and Caspase-7 is downstream of inhibition of MCL-1 or other apoptosis inhibiting proteins in cell lines that are dependent on them.
# The live-cell readout on the IncuCyte permits tracking over time of the Caspase activation. […] The IncuCyte readout also allows one to normalize for cell number, as the suspension cells are hard to distribute evenly.
# Signals were measured every 2 h for a duration of 22 h. The ratio of the Caspase mask to the Confluence mask, per image, as raw data, was calculated and the kinetic trace for every well was exported to Genedata Screener for analysis.
# In Genedata Screener values for 6 h, 12 h, and 22 h from the kinetic traces were extracted. The values were normalized against negative controls (untreated cells). A standard dose-response analysis was performed on the normalized data.
# The following data was reported at each of the following three aforementioned time points: (a) The dose-response curve, (b) The qAC50 and qAC50 Mode, and (c) Max Activity.
# Cells were maintained in culture medium containing 10% Heat Inactivated (HI) FBS, 2 mM L-Glutamine and 50 μg/mL Gentamycin phenol red free RPMI-1640. Cells were split at 0.4 million/mL twice a week.
# On Day 1, plates containing individual wells with test compounds at 10 mM concentration, 150 nL per well. The final concentrations range from […] compound (and no compound control) and compounds were thawed at room temperature for 1 hour. 25 μl of prewarmed medium was added into each well by multidrop (column 1, 3-22, 24), followed by addition of DMSO control (0.6% DMSO) in column 2. The plate was sealed using Breathe-Easy® sealing membrane and shaken for 30 min at room temperature to dissolve the test compound(s) in medium. The plate was then kept in the incubator for 1 hour at 37° C., 5% CO2.
# MOLP8 cells in medium at […] (20000/50 μl final in assay) were prepared with CellEvent™ Caspase-3/7 Green Detection Reagent at 4 μM (2 μM final in assay). Once prepared, the cells were added to the test compound plate in an amount of 20000 and the plate was immediately placed in the IncuCyte and imaging started using following settings: 10× objective, 2 s exposure time in green channel, interval of 2 h, acquisition stopped after 22 h.
# For analysis in IncuCyte, a Basic Analysis protocol was defined to calculate the “confluence” and “caspase” areas from the “Phase” and “green” images, respectively, as follows: (a) Confluence: Segmentation Adjustment 1, Hole Fill 0, Adjust Size −2, No filters (b) Caspase: Top-Hat segmentation, Radius 10, Threshold 0.3 GCU, Edge Split On with sensitivity 0, Hole Fill 0, Adjust Size 1, and filter on a minimum Area of 20 μm^2. The analyzer is trained on a sufficient number of positive and negative control wells, as well as compound treated wells, verifying that the “confluence” layer detects both live and dead (condensed) cells. […]
# [3] = test system: MOLP-8 human multiple myeloma cell line; experiment: MOLP8 Caspase-Glo 3/7 luminescent assay; type: cell-based
# Excerpt: as §1
# The Caspase-Glo® 3/7 Assay is a luminescent assay that measures caspase-3 and -7 activities in purified enzyme preparations or cultures of adherent or suspension cells. The assay provides a proluminescent caspase-3/7 substrate, which contains the tetrapeptide sequence DEVD. This substrate is cleaved to release aminoluciferin, a substrate of luciferase used in the production of light. Addition of the single Caspase-Glo® 3/7 Reagent in an “add-mix-measure” format results in cell lysis, followed by caspase cleavage of the substrate and generation of a “glow-type” luminescent signal.
# This assay uses the MOLP-8 human multiple myeloma cell line, which is sensitive to MCL-1 inhibition.
# Cell cultures were maintained between 0.2 and 2.0×10^6 cells/mL. The cells were harvested by collection in 50 mL conical tubes. The cells were then pelleted at 500 g for 5 mins before removing supernatant and resuspension in fresh pre-warmed culture medium. The cells were counted and diluted as needed.
# The assay reagent was prepared by transferring the buffer solution to the substrate vial and mixing. The solution may be stored for up to 1 week at 4° C. with negligible loss of signal.
# Compounds were delivered in assay-ready plates (Proxiplate) and stored at −20° C.
# Assays always include 1 reference compound plate containing reference compounds. The plates were spotted with 40 nL of compounds (0.5% DMSO final in cells; serial dilution; 30 μM highest conc. 1/3 dilution, 10 doses, duplicates). The compounds were used at room temperature and 4 μL of pre-warmed media was added to all wells except column 2 and 23. The negative control was prepared by adding 1% DMSO in media. The positive control was prepared by adding the appropriate positive control compound in final concentration of 60 μM in media. The plate was prepared by adding 4 μL negative control to column 23, 4 μL positive control to column 2 and 4 μL cell suspension to all wells in the plate. The plate with cells was then incubated at 37° C. for 2 hours. The assay signal reagent is the Caspase-Glo solution described above, and 8 μL was added to all wells. The plates were then sealed and measured after 30 minutes.
# The activity of a test compound was calculated as percent change in apoptosis induction as follows: […]
# [4] = read-out: MOLP8 Caspase 3/7 AC50 at 6 h, MOLP8 cells, 6 h
# [5] = read-out: MOLP8 Caspase 3/7 AC50 at 12 h, MOLP8 cells, 12 h
# [6] = read-out: MOLP8 Caspase 3/7 AC50 at 22 h, MOLP8 cells, 22 h
# [7] = MOLP8 cells, 2 hours incubation; averaged over all runs on all batches; read-out: MOLP8 Caspase-Glo AC50
# [8] = read-out: MOLP8 Caspase-Glo AC50; MOLP8 cells, 2 hours incubation; averaged over all runs on all batches
# [9] = Homo sapiens, MOLP-8, 6 h, read-out: MOLP8 Caspase 3/7 AC50 at 6 h (μM), MOLP8 cells, 6 h
# [10] = Homo sapiens, MOLP-8, 12 h, read-out: MOLP8 Caspase 3/7 AC50 at 12 h (μM), MOLP8 cells, 12 h
# [11] = Homo sapiens, MOLP-8, 22 h, read-out: MOLP8 Caspase 3/7 AC50 at 22 h (μM), MOLP8 cells, 22 h
# Myeloid Cell Leukemia 1 (Mcl-1), sequence (Q07820 whole entry): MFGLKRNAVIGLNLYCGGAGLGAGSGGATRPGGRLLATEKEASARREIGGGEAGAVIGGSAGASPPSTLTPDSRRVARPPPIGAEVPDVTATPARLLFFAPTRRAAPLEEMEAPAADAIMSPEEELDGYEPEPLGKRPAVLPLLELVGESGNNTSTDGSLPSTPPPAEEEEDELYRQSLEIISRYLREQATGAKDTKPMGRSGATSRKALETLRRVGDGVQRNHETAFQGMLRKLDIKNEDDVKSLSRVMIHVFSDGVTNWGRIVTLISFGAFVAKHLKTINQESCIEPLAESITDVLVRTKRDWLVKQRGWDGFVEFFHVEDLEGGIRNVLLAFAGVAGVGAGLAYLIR
SMILES,Ki [1],"AC50 [2, 4]","AC50 [2, 5]","AC50 [2, 6]","AC50 [3, 7]","AC50 [3, 8]","AC50 [2, 9]","AC50 [2, 10]","AC50 [2, 11]"
"Cc1c2c(nn1CCN1CCOCC1)CN(C)Cc1cc(n(C)n1)CSc1cc(c3ccccc3c1)OCCCc1c(C(=O)O)n(C)c3c-2c(Cl)ccc13 (single isomer, unassigned) [Compound 13]",0.05 nM and 0.04 nM,0.15 µM,0.15 µM,0.17 µM,75 nM,–,–,–,–
"Cc1c2c(nn1CCN1CCOCC1)CN(C)Cc1cc(n(C)n1)CSc1cc(c3ccccc3c1)OCCCc1c(C(=O)O)n(C)c3c-2c(Cl)ccc13 (single isomer, unassigned) [Compound 14]",2.85 nM and 2.53 nM,7.67 µM,7.16 µM,7.33 µM,3680 nM,–,–,–,–
"Cc1nn(CC2CCOCC2)c2c1-c1c(Cl)ccc3c(c(C(=O)O)n(C)c13)CCCOc1cc(cc3ccccc13)SCc1cc(nn1C)CN(C)C2 (single isomer, unassigned) [Compound 15]",0.09 nM and 0.03 nM,0.23 µM,0.23 µM,0.19 µM,67 nM,–,–,–,–
"Cc1c2c(nn1CC1CCOCC1)CN(C)Cc1cc(n(C)n1)CSc1cc(c3ccccc3c1)OCCCc1c(C(=O)O)n(C)c3c-2c(Cl)ccc13 (single isomer, unassigned) [Compound 16]",0.06 nM and 0.05 nM,0.15 µM,0.14 µM,0.15 µM,49 nM,–,–,–,–
"Cc1c2c(nn1CC1CCOCC1)CN(C)Cc1cc(n(C)n1)CSc1cc(c3ccccc3c1)OCCCc1c(C(=O)O)n(C)c3c-2c(Cl)ccc13 (single isomer, unassigned) [Compound 17]",0.41 nM and 0.66 nM,1.23 µM,1.24 µM,1.22 µM,564 nM,–,–,–,–
"Cc1nn(CC2CCOCC2)c2c1-c1c(Cl)ccc3c(c(C(=O)O)n(C)c13)CCCOc1cc(cc3ccccc13)SCc1cc(nn1C)CN(C)C2 (single isomer, unassigned) [Compound 18]",2.46 nM and 3.31 nM,8.32 µM,8.41 µM,7.85 µM,3760 nM,–,–,–,–
"COCCn1nc(C)c2c1CN(C)Cc1cc(n(C)n1)CSc1cc(c3ccccc3c1)OCCCc1c(C(=O)O)n(C)c3c-2c(Cl)ccc13 (single isomer, unassigned) [Compound 25]",0.04 nM,0.09 µM,0.1 µM,0.11 µM,–,–,–,–,–
"Cc1c2c(nn1CCCN1CCOCC1)CN(C)Cc1cc(n(C)n1)CSc1cc(c3ccccc3c1)OCCCc1c(C(=O)O)n(C)c3c-2c(Cl)ccc13 (single isomer, unassigned) [Compound 35]",0.04 nM,0.15 µM,0.15 µM,0.15 µM,–,–,–,–,–
"Cc1c2c(nn1CCO)CN(C)Cc1cc(n(C)n1)CSc1cc(c3ccccc3c1)OCCCc1c(C(=O)O)n(C)c3c-2c(Cl)ccc13 (single isomer, unassigned) [Compound 37]",0.06 nM and 0.04 nM,0.71 µM,0.62 µM,0.56 µM,–,–,–,–,–
"Cc1nn(CCO)c2c1-c1c(Cl)ccc3c(c(C(=O)O)n(C)c13)CCCOc1cc(cc3ccccc13)SCc1cc(nn1C)CN(C)C2 (single isomer, unassigned) [Compound 39]",0.06 nM and 0.05 nM,0.65 µM,0.85 µM,0.65 µM,–,–,–,–,–
"CCn1nc2cc1CSc1cc(c3ccccc3c1)OCCCc1c(C(=O)O)n(C)c3c(c(Cl)ccc13)-c1c(nn(C)c1C)CSC2 (single isomer, unassigned) [Compound 43]",0.04 nM,–,–,–,–,63 nM,–,–,–
"CCn1nc2cc1CSc1cc(c3ccccc3c1)OCCCc1c(C(=O)O)n(C)c3c(c(Cl)ccc13)-c1c(nn(C)c1C)CSC2 (single isomer, unassigned) [Compound 44]",4.06 nM,–,–,–,–,3560 nM,–,–,–
CCn1nc2cc1CSCc1nn(C)c(C)c1-c1c(Cl)ccc3c(c(C(=O)O)n(C)c13)CCCOc1cc(cc3ccccc13)SC2 [Compound 1],0.15 nM,–,–,–,–,–,0.13 µM,0.13 µM,0.11 µM
Cc1c2c(nn1C)CSCc1cc(nn1CCN(C)C)CSc1cc(c3ccccc3c1)OCCCc1c(C(=O)O)n(C)c3c-2c(Cl)ccc13 [Compound 4],0.09 nM and 0.1 nM,–,–,–,–,–,0.22 µM,0.25 µM,0.23 µM
Cc1c2c(nn1C)CSCc1cc(n(CCN(C)C)n1)CSc1cc(c3ccccc3c1)OCCCc1c(C(=O)O)n(C)c3c-2c(Cl)ccc13 [Compound 5],0.06 nM and 0.08 nM,–,–,–,–,–,0.08 µM,0.08 µM,0.07 µM
Cc1c2c(nn1C)CSCc1cc(n(CCO)n1)CSc1cc(c3ccccc3c1)OCCCc1c(C(=O)O)n(C)c3c-2c(Cl)ccc13 [Compound 7],< 0.094 nM,–,–,–,–,–,0.47 µM,0.45 µM,0.46 µM
Cc1c2c(nn1C)CSCc1cc(nn1CCN1CCOCC1)CSc1cc(c3ccccc3c1)OCCCc1c(C(=O)O)n(C)c3c-2c(Cl)ccc13 [Compound 8],0.13 nM and 0.08 nM,–,–,–,–,–,0.24 µM,0.24 µM,0.25 µM
Cc1c2c(nn1C)CSCc1cc(n(CCN3CCOCC3)n1)CSc1cc(c3ccccc3c1)OCCCc1c(C(=O)O)n(C)c3c-2c(Cl)ccc13 [Compound 9],0.05 nM,–,–,–,–,–,0.1 µM,0.097 µM,0.1 µM
Cc1c2c(nn1C)CSCc1cc(n(CC3CCOCC3)n1)CSc1cc(c3ccccc3c1)OCCCc1c(C(=O)O)n(C)c3c-2c(Cl)ccc13 [Compound 12],0.05 nM and 0.08 nM,–,–,–,–,–,0.18 µM,0.18 µM,0.13 µM
